The target of one data set is T1, SbzB (Streptomyces sp., UniProt P0DY32).
T1 construct: pET28a NdeI/HindIII, His-tagged, E. coli Rosetta2 (DE3), Ni-NTA
T1 sequence (P0DY32 1-532): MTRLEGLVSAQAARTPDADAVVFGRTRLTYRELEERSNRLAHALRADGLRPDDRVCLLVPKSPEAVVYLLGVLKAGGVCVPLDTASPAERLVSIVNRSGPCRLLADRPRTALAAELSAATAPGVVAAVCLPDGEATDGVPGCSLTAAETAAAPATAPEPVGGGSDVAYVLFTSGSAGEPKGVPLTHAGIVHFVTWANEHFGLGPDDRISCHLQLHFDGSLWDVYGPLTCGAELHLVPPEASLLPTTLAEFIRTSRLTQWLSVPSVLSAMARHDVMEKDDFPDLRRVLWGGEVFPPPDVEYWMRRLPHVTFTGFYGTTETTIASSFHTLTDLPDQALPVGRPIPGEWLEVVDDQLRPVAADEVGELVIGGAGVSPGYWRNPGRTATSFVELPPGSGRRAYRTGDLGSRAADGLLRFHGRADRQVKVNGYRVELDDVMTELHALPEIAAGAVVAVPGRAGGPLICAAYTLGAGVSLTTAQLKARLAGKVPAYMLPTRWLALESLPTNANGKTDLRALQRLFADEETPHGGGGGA
Description: malachite green adenylation assay with hydroxylamine; chiral HPLC. It is filed as biochemical. The note with it: 0.5 mM ATP, 10 mM MgCl2, Tris-HCl pH 7.5, 30 °C.

Substrate in data set [1]: N[C@@H](CS)C(=O)O
Description: LC-MS quantification of substrate consumption. It is filed as biochemical, Streptomyces sp. Particulars: 50 mM Tris pH 9.0, 30 °C, TCEP, 6 μM SbzM, 2 min, n = 2.

The text below walks through data of paper PMC6331615, “Aminoacyl sulfonamide assembly in SB-203208 biosynthesis” (Nature Communications, 2019).

In general, Km refers to the substrate concentration at which the rate is half of its maximum.

As for `C[C@H](c1ccccc1)[C@H](N)C(=O)O` [(2S, 3R)-β-methylphenylalanine], the “malachite green adenylation assay with hydroxylamine; chiral HPLC” value on SbzB is on record as “SbzB indeed selectively adenylated (2S, 3R)-β-methylphenylalanine as the best substrate”.

B1: SbzM (Streptomyces sp.) (protein)
chain: MSTQQVIAMLTEELHDLDPAERQAKTVELLAVFGRAKAEALQPEERPEAPDTKPGPLLICDWAADLGLDGTTQQLGIEVAPGPTKVTKTADATGHSLASSGHVGADILHVPAGSGFAPHTHPGDHLLFVLAGTGTIAVAGEIVRTRPGQVYMVQGDITHAVGAVTDHMILSVGAPHRRLDSPDRQELTAYAALLGELGEITCRLCDISAAGGEELAAKGCTHSPHRFG
notes: pET28a NdeI/HindIII, His-tagged, E. coli Rosetta2 (DE3), Ni-NTA; tag cleavage not mentioned
Turning to B1, the Km in data set [1] was found to be 530 ± 80 µM.
